Test results: publication PMC4503722, “Novel Phenotypic Outcomes Identified for a Public Collection of Approved Drugs from a Publicly Accessible Panel of Assays” (PLoS ONE, 2015)
Like-named read-outs stand apart in the source and are kept apart here.

Columns and labels:
Assay in all cases: cells
DLD-1 = type: cell-based
HCT116 = type: cell-based
RKO = type: cell-based
[1] = system: nuclear β-catenin in C2C12 cells; type: cell-based
HeLa cells = type: cell-based; conditions: read-out: CellCycle G2/M
Colo320 = type: cell-based
HT-29 = type: cell-based
SNU-C1 = type: cell-based
NCI-H716 cells = type: cell-based, Human
INS-1E cells = type: cell-based, rat
[2] = system: HCT116 cells treated with a GSK3β inhibitor; type: cell-based
SW480 = type: cell-based
[3] = system: endothelial tube formation in co-cultures of ECFCs and ADSCs treated with VEGF; type: cell-based, human
[4] = Homo sapiens, DLD-1, basal, DLD-1, read-out: Basal_Viability ATP DLD-1
[5] = Homo sapiens, HCT-116, basal, HCT116, read-out: Basal_Viability ATP HCT116
[6] = Homo sapiens, basal, RKO, read-out: Basal_Viability ATP RKO
[7] = Mus musculus, C2C12, S2 Table; module primary assay; 20 / 20.1 codes per legend; read-out: Wnt Pathway
[8] = Homo sapiens, HeLa, S2 Table, HeLa, 20 = no response at highest concentration
[9] = Homo sapiens, basal, Colo 320, read-out: Basal_Viability ATP Colo 320
[10] = Homo sapiens, basal, HT-29, read-out: Basal_Viability ATP HT-29
[11] = Homo sapiens, SNU-C1, basal, SNU-C1, read-out: Basal_Viability ATP SNU-C1
[12] = Homo sapiens, NCI-H716; read-out: GLP 1 Secretion
[13] = Rattus norvegicus, INS-1E; read-out: Insulin Secretion
[14] = Homo sapiens, HCT-116, read-out: GSK3b inh pretreated_Viability ATP HCT116
[15] = Homo sapiens, SW480, basal, SW480, read-out: Basal_Viability ATP SW480
[16] = basal, read-out: Basal_Viability ATP DLD-1
[17] = basal, read-out: Basal_Viability ATP HCT116
[18] = basal, read-out: Basal_Viability ATP RKO
[19] = IC50 / EC50; C2C12 beta-catenin translocation; read-out: Wnt Pathway
[20] = basal, read-out: Basal_Viability ATP Colo 320
[21] = basal, read-out: Basal_Viability ATP HT-29
[22] = basal, read-out: Basal_Viability ATP SNU-C1
[23] = IC50 / EC50; NCI-H716; read-out: GLP 1 Secretion
[24] = IC50 / EC50; INS-1E; read-out: Insulin Secretion
[25] = GSK3b inhibitor pretreated, read-out: GSK3b inh pretreated_Viability ATP HCT116
[26] = basal, read-out: Basal_Viability ATP SW480
[27] = IC50 / EC50; endothelial tube area, ADSC/ECFC co-culture; read-out: Anti-Angiogenesis
[28] = read-out: Basal_Viability ATP DLD-1
[29] = read-out: Basal_Viability ATP HCT116
[30] = read-out: Basal_Viability ATP RKO
[31] = read-out: Basal_Viability ATP Colo 320
[32] = read-out: Basal_Viability ATP HT-29
[33] = read-out: Basal_Viability ATP SNU-C1
[34] = read-out: GSK3b inh pretreated_Viability ATP HCT116
[35] = read-out: Basal_Viability ATP SW480
[36] = Homo sapiens, HT-29, read-out: Basal_Viability ATP HT-29
[37] = Homo sapiens, HCT-116, HCT116 pretreated with GSK3b inhibitor, read-out: GSK3b inh pretreated_Viability ATP HCT116
[38] = Homo sapiens; read-out: Anti-Angiogenesis
[39] = Homo sapiens, DLD-1, read-out: Basal_Viability ATP DLD-1
[40] = Homo sapiens, HCT-116, read-out: Basal_Viability ATP HCT116
[41] = Homo sapiens, RKO, read-out: Basal_Viability ATP RKO
[42] = Homo sapiens, COLO 320, read-out: Basal_Viability ATP Colo 320
[43] = Homo sapiens, SNU-C1, read-out: Basal_Viability ATP SNU-C1
[44] = Homo sapiens, SW480, read-out: Basal_Viability ATP SW480
[45] = Homo sapiens, read-out: Anti-Angiogenesis

CCCCOC(=O)c1ccc(N)cc1 [Butyl aminobenzoate]
IC50 (DLD-1; [4]): 4560 nM
IC50 (HCT116; [5]): > 20000 nM
IC50 (RKO; [6]): 137 nM
EC50 [1, 7]: > 10 µM
EC50 (HeLa cells; [8]): > 10 µM
IC50 (Colo320; [9]): > 20000 nM
IC50 (HT-29; [10]): > 20000 nM
IC50 (SNU-C1; [11]): > 20 µM
EC50 (NCI-H716 cells; [12]): > 10 µM
EC50 (INS-1E cells; [13]): > 10 µM
IC50 [2, 14]: 5610 nM
IC50 (SW480; [15]): 586 nM
IC50 ([3]; Homo sapiens, S2 Table; module primary assay; 20 = no response at highest concentration, 20.1 = inactive in single concentration testing; read-out: Anti-Angiogenesis): > 10000 nM

O=[N+]([O-])c1ccc(Oc2ccc(N=C=S)cc2)cc1 [Cantrodifene]
IC50 (DLD-1; [16]): 2100 nM
IC50 (HCT116; [17]): 2770 nM
IC50 (RKO; [18]): 2340 nM
EC50 [1, 19]: > 10 µM
EC50 (HeLa cells; IC50 / EC50, HeLa): > 10 µM
IC50 (Colo320; [20]): 1460 nM
IC50 (HT-29; [21]): 1070 nM
IC50 (SNU-C1; [22]): 4.33 µM
EC50 (NCI-H716 cells; [23]): > 10 µM
EC50 (INS-1E cells; [24]): > 10 µM
IC50 [2, 25]: 1470 nM
IC50 (SW480; [26]): 1630 nM
IC50 [3, 27]: 3720 nM

O=C([O-])CN(CCN(CC(=O)[O-])CC(=O)O)CCN(CC(=O)[O-])CC(=O)O.[Gd+3] [Gadopentetic acid]
IC50 (DLD-1; [28]): > 20000 nM
IC50 (HCT116; [29]): > 20000 nM
IC50 (RKO; [30]): 2960 nM
EC50 ([1]; read-out: Wnt Pathway): > 10 µM
EC50 (HeLa cells): > 10 µM
IC50 (Colo320; [31]): > 20000 nM
IC50 (HT-29; [32]): > 20000 nM
IC50 (SNU-C1; [33]): > 20 µM
EC50 (NCI-H716 cells; read-out: GLP 1 Secretion): > 10 µM
EC50 (INS-1E cells; read-out: Insulin Secretion): > 10 µM
IC50 [2, 34]: 896 nM
IC50 (SW480; [35]): 3140 nM
IC50 ([3]; read-out: Anti-Angiogenesis): > 10000 nM

O=C(c1cc(O)c(O)c(O)c1)c1ccc(O)c(O)c1O [Hexahydro-2,3,4,3',4',5'-benzophenone]
IC50 (DLD-1; [16]): 11900 nM
IC50 (HCT116; [17]): 16300 nM
IC50 (RKO; [18]): 192 nM
EC50 [1, 19]: > 10 µM
EC50 (HeLa cells; IC50 / EC50, HeLa): > 10 µM
IC50 (Colo320; [20]): 9380 nM
IC50 (HT-29; [21]): 9450 nM
IC50 (SNU-C1; [22]): 12.8 µM
EC50 (NCI-H716 cells; [23]): > 10 µM
EC50 (INS-1E cells; [24]): > 10 µM
IC50 [2, 25]: 69.1 nM
IC50 (SW480; [26]): 9950 nM
IC50 [3, 27]: > 10000 nM

O=C1C(I)=CC(=C(c2cc(I)c(O)c(I)c2)c2ccccc2C(=O)O)C=C1I [Iodotetragnost]
IC50 (DLD-1; [4]): 13.2 nM
IC50 (HCT116; [5]): 384 nM
IC50 (RKO; [6]): 37.3 nM
EC50 ([1]; Mus musculus, C2C12; read-out: Wnt Pathway): > 20 µM
EC50 (HeLa cells; [8]): > 10 µM
IC50 (Colo320; [9]): 312 nM
IC50 (HT-29; [36]): 5730 nM
IC50 (SNU-C1; [11]): 3.76 µM
EC50 (NCI-H716 cells; [12]): > 10 µM
EC50 (INS-1E cells; [13]): > 10 µM
IC50 [2, 37]: 54 nM
IC50 (SW480; [15]): 112 nM
IC50 [3, 38]: > 10000 nM

CO[C@@]12[C@H](COC(N)=O)C3=C(C(=O)C(C)=C(N)C3=O)N1C[C@@H]1N[C@@H]12 [Mitomycin]
IC50 (DLD-1; [39]): 5630 nM
IC50 (HCT116; [40]): 13600 nM
IC50 (RKO; [41]): 995 nM
EC50 ([1]; Mus musculus, C2C12, read-out: Wnt Pathway): > 10 µM
EC50 (HeLa cells; Homo sapiens, HeLa): > 10 µM
IC50 (Colo320; [42]): 12600 nM
IC50 (HT-29; [36]): 2570 nM
IC50 (SNU-C1; [43]): 8.13 µM
EC50 (NCI-H716 cells; Homo sapiens, NCI-H716, read-out: GLP 1 Secretion): > 10 µM
EC50 (INS-1E cells; Rattus norvegicus, INS-1E, read-out: Insulin Secretion): > 10 µM
IC50 [2, 14]: > 20000 nM
IC50 (SW480; [44]): 12100 nM
IC50 [3, 45]: 102 nM

O=C(NOCC1CC1)c1ccc(F)c(F)c1Nc1ccc(I)cc1Cl [PD-184352, reference compound]
IC50 (DLD-1; Homo sapiens, DLD-1, 72 h, read-out: DLD-1 viab. IC50): 2200 nM
IC50 (DLD-1; [39]): 2160 nM
IC50 (HCT116; Homo sapiens, HCT-116, 72 h, read-out: HCT-116 viab. IC50): 2 nM
IC50 (HCT116; [40]): 1.79 nM
IC50 (RKO; Homo sapiens, RKO, 72 h, read-out: RKO viab. IC50): 3 nM
IC50 (RKO; [41]): 3.19 nM
EC50 ([1]; Mus musculus, C2C12, read-out: Wnt pot. EC50): > 10 µM
EC50 (HeLa cells; Homo sapiens, HeLa): > 10 µM
IC50 (Colo320; Homo sapiens, COLO 320, 72 h, read-out: Colo320 viab. IC50): 850 nM
IC50 (Colo320; [42]): 848 nM
IC50 (HT-29; Homo sapiens, HT-29, 72 h, read-out: HT-29 viab. IC50): 26 nM
IC50 (HT-29; [36]): 26.3 nM
IC50 (SNU-C1; Homo sapiens, SNU-C1, 72 h, read-out: SNU-C1 viab. IC50): 0.017 µM
IC50 (SNU-C1; [43]): 0.0171 µM
EC50 (NCI-H716 cells; Homo sapiens, NCI-H716, read-out: GLP1 sec. EC50): > 10 µM
EC50 (INS-1E cells; Rattus norvegicus, INS-1E, read-out: Ins. sec. EC50): > 10 µM
IC50 ([2]; Homo sapiens, HCT-116, 72 h, read-out: HCT-116 (GSK3β) viab. IC50): 970 nM
IC50 [2, 14]: 969 nM
IC50 (SW480; Homo sapiens, SW480, 72 h, read-out: SW480 viab. IC50): 5 nM
IC50 (SW480; [44]): 4.95 nM
IC50 ([3]; Homo sapiens, read-out: Anti-Angio IC50): 370 nM
IC50 [3, 45]: 368 nM

OC[C@H]1O[C@@H](n2cnc3c(S)ncnc32)[C@H](O)[C@@H]1O [Thioinosine]
IC50 (DLD-1; [4]): 63 nM
IC50 (HCT116; [5]): 28.6 nM
IC50 (RKO; [6]): 14.4 nM
EC50 [1, 7]: > 10 µM
EC50 (HeLa cells; [8]): > 10 µM
IC50 (Colo320; [9]): 1060 nM
IC50 (HT-29; [10]): 118 nM
IC50 (SNU-C1; [11]): 2.19 µM
EC50 (NCI-H716 cells; [12]): > 10 µM
EC50 (INS-1E cells; [13]): > 10 µM
IC50 [2, 37]: 504 nM
IC50 (SW480; [15]): 28.7 nM
IC50 [3, 38]: 1420 nM

O=C(Nc1ccc(Br)cc1)c1cc(Br)cc(Br)c1O [Tribromsalan]
IC50 (DLD-1; [4]): 1 nM
IC50 (HCT116; [5]): 3 nM
IC50 (RKO; [6]): 3 nM
EC50 [1, 7]: > 10 µM
EC50 (HeLa cells; [8]): > 10 µM
IC50 (Colo320; [9]): 3 nM
IC50 (HT-29; [10]): 1 nM
IC50 (SNU-C1; [11]): 0.001 µM
EC50 (NCI-H716 cells; [12]): > 10 µM
EC50 (INS-1E cells; [13]): > 10 µM
IC50 [2, 37]: 1 nM
IC50 (SW480; [15]): 1 nM
IC50 [3, 38]: 1810 nM

Oc1ccc([C@@H]2CNCc3c2ccc(O)c3O)cc1O [Zelandopam]
IC50 (DLD-1; [28]): > 20000 nM
IC50 (HCT116; [29]): > 20000 nM
IC50 (RKO; [30]): 33.2 nM
EC50 ([1]; read-out: Wnt Pathway): > 10 µM
EC50 (HeLa cells): > 10 µM
IC50 (Colo320; [31]): 466 nM
IC50 (HT-29; [32]): > 20000 nM
IC50 (SNU-C1; [33]): > 20 µM
EC50 (NCI-H716 cells; read-out: GLP 1 Secretion): 5.95 µM
EC50 (INS-1E cells; read-out: Insulin Secretion): > 10 µM
IC50 [2, 34]: 188 nM
IC50 (SW480; [35]): > 20000 nM
IC50 ([3]; read-out: Anti-Angiogenesis): > 10000 nM
